Laboratory results: paper PMC4351150 (Cancer immunology research, 2015)
“And” between values parts separate entries of the source, which are not always exact repeats. Equal entries are not always repeated.

Assays:
[1] = system: CD8^+ TCRβ repertoire of Patient 5; test: Bulk TCRβ repertoire sequencing: mapping of tetramer-associated TCRβ clonotypes; set-up: species or system human; conditions: for total share of tetramer-associated TCRβ clonotypes in TCRβ repertoire: Patient 5, sample 2 months later, 3×10^6 CD8^+ cells, Illumina HiSeq
CD8^+ cells = assay type: cell-based; conditions: UNC-CDK4-1-pulsed T2 cells as stimulators; % of CD8^+ cells (Supplementary Figure 1)
HLA-A*02:01 = HLA-A*02:01 (Homo sapiens, UniProt P04439, D140Y/D185E/D98H/E176V/E277Q/G131W/G231S/I119V/I121R/I166T/I218V/L300P/L318F/N151K/N90K/P208A/P217A/Q86G/Q94H/R138H/R169H/T345S); test: iTopia binding affinity assay
[2] = system: CD8^+ T cells of HLA-A*02:01-expressing post-SCT AML patients; test: PE-peptide/HLA-A*02:01 tetramer flow cytometry of post-SCT AML patient PBMCs; assay type: cell-based

Sequence	total share of tetramer-associated TCRβ clonotypes in TCRβ repertoire [1]	mean enrichment ratio of tetramer-associated clonotypes ([1]; clonotype frequency in tetramer^+ gate / clonotype frequency in bulk repertoire, Patient 5, t-test p < 0.0001 between antigens)	CD8^+ cells specific for UNC-CDK4-1 (CD8^+ cells) [%]	binding affinity to HLA-A*02:01 (HLA-A*02:01)	tetramer frequency, % of CD8^+ cells (positive patients) ([2]; 3 of 6 post-SCT AML patients, PE-UNC-CDK4-1/HLA-A*02:01 tetramer, 4°C, 25 minutes, threshold >0.01%) [%]	tetramer^+ T-cell population frequency in Patient 5 ([2]; Patient 5, day +567 post-SCT, CMV seropositive, not viremic) [%]
NLVPMVATV [pp65NLV, reference compound]	0.002%					
ALTPVVVTL [UNC-CDK4-1]	> 17% and 17.1%	1.04×10^1	0.2	high affinity to HLA-A*02:01	> 0.01	0.04
